Laboratory results reported in patent US11632953B2, “Method for controlling hematophagous or sap-feeding arthropods” (Board of Supervisors of Louisiana State University and …, priority 2016, dated 2023).
Like-named read-outs stand apart in the source and are kept apart here.

How the values were obtained:
[1] = test system: Aedes aegypti mosquitoes; assay: mosquito blood feeding with compound exposure; assay type: in vivo; conditions: compound added to blood
Text: Tolbutamide and glybenclamide are inhibitors of ATP-gated Kir channels.

[2] = test system: Amblyomma americanum; assay: tick toxicity (compound in blood meal or injected); assay type: in vivo; conditions: for mortality rate: in blood meal
Text: A failure to osmoregulate during blood feeding would result in a buildup of ions at toxic concentrations into the hemocoel.

[3] = test system: isolated tick salivary gland; assay: fluid secretion (salivation) in the isolated tick salivary gland, modified Ramsay assay; parameters: species or system Amblyomma americanum; conditions: for total salivation volume: control 150 nL/5 min; for IC50: read-out: IC50 inhibition of salivation
[4] = test system: Chickungunya virus; assay: infection of mosquitoes by virus after blood meal; conditions: in vivo
[5] = test system: Amblyomma americanum; assay: tick blood feeding with compound included in the blood meal; assay type: in vivo; conditions: for average detachments during blood feeding: control 0.11
Text: All ticks were observed attempting to feed by including rhodamine B, a fluorescent tracer, in the blood meal.

[6] = test system: Aedes aegypti mosquitoes; assay: saliva collection from live mosquito after injection; assay type: in vivo; conditions: control 1.4 μL
Text: We investigated the influence of Katp modulators on mosquito salivation and blood feeding. We employed an established assay to collect the saliva from a live mosquito.

[7] = test system: sugar and bitter cells of mosquito mouthparts; assay: electrophysiological recordings of maxilla gustatory sensilla
[8] = test system: isolated tick salivary gland; assay: ion secretion in saliva of the isolated tick salivary gland; parameters: species or system Amblyomma americanum
[9] = test system: mosquito Kin channels; conditions: in vitro; cited from earlier work
[10] = test system: mosquitoes; conditions: in vivo; cited from earlier work

For `CC(N=C(NC#N)Nc1ccncc1)C(C)(C)C` (racemic) [pinacidil, (±)-N-Cyano-N′-4-pyridinyl-N″-(1,2,2-trimethylpropyl)guanidine], the “reduction of total volume of blood consumed” value [1] was 99%, the mortality rate ([2]; day 1) was 65% and the mortality rate ([2]; day 2) was 72%. The mortality rate ([2]; day 3) was 88%, the mortality rate ([2]; day 4) was 94% and the mortality rate ([2]; day 5) was 99%. For the same compound, the total salivation volume ([3]; 600 μM pinacidil after pre-exposure to ATP) was 142 nL/5 min, the total salivation volume ([3]; 600 μM pinacidil) was 40 nL/5 min and the “Effect on Salivation at 10 minutes (reduction)” value ([3]; 10 minutes, isolated tick salivary gland) was “Reduced ~98%”. It also gave an IC50 ([3]; Amblyomma americanum, 10 min, 10 min of salivation) of 320000 nM, an IC50 ([3]; Amblyomma americanum, 20 min, 20 min of salivation) of 250000 nM and an IC50 ([3]; Amblyomma americanum, 0.5 h, 30 min of salivation) of 120000 nM. The “reduction of salivary output / saliva secretion compared to control” value ([3]; isolated tick salivary gland) was 97%, the “infection of mosquitoes by the virus after feeding on a blood meal” value [4] was “inhibited infection” and the “reduction of volume of blood ingested” value ([5]; 400 μM in blood meal, throughout the course of feeding) was “up to 15 fold”. For the same compound, the “average detachments during blood feeding” value [5] was 2.1 times per feeding, the “volume of blood ingested” value ([5]; day 6 of feeding, 400 μM, control 16±4) was 1.2±0.3 μL per day and the secreted saliva volume [6] was 0.3 µL. For the same compound, the “response of gustatory sensilla cells” value [7] was “elicits a spike in the sugar and bitter cells” and the “cations (K+ and Na+) concentrations excreted from the salivary glands” value [8] was “significant reduction”.

For `Cn1c(=O)c2c(ncn2Cc2ccc(C(C)(C)C)cc2)n(C)c1=O` [VU063], the “reduction of total volume of blood consumed” value [1] was 99%, the “pattern of mortality as a function of time compared with pinacidil” value ([2]; exposed while feeding) was “nearly-identical pattern of mortality” and the “effect on salivation in the isolated salivary gland” value [3] was “eliminated salivation”. It also gave an IC50 ([3]; 10 min of salivation) of 772 nM, an IC50 ([3]; 20 min of salivation) of 560 nM and an IC50 ([3]; 30 min of salivation) of 410 nM. The “effect of pre-exposure of the gland to ATP on inhibition of salivation” value ([3]; pre-exposure to ATP) was “negated the inhibitory effect”, the tick body weights ([5]; VU063 at 100 μM in blood meal) was “not statistically different from that of unfed ticks” and the “volume of ingested blood” value ([5]; compound in blood meal, VU063 at 100 μM) was “below the limits of detection”. For the same compound, the “average detachments during blood feeding” value [5] was 3.6 times per feeding, the secreted saliva volume [6] was 0.1 µL and the “cations (K+ and Na+) concentrations excreted from the salivary glands” value [8] was “significant reduction”.

In the case of `CCC(=O)N1c2ccc(S(=O)(=O)Nc3cccc(OC)c3)cc2CC1C` (stereo not shown) [VU625], the IC50 [9] is given as ~100 nM and the “topical toxicity to mosquitoes” value [10] is given as “not topically toxic”.
